Assays:
[1] = tested on: human acute lymphoblastic leukemia (ALL) CCRF-CEM cell lines; test: Antitumor effect on tumor cells transplanted into mice 3 (CCRF-CEM, tumor volume); assay type: in vivo, BALB/cAJcl-nu/nu mice (nude mice); conditions: Dunnett's test; CCRF-CEM in nude mice; compound hydrochlorides, intravenous
Description: (§1) The length and the width of the implanted tumor and the body weight were measured. The tumor volume (TV) was calculated using the following equation (equation D). TV (mm3)=(length×width^2)/2, wherein the unit of length and width is mm (equation D).
(§2) Thereafter, the length and the width of the tumor and the body weight (BWn) on day n were measured over time in the same manner, and the TVn of each mouse was calculated. Further, the relative tumor volume (RTVn) was calculated based on the TVn of each mouse using the following equation (equation E); the treatment/control (T/C) value (%) was calculated based on the mean RTVn of each drug administration group using the following equation (equation F); and the weight change rate (BWCn) was calculated using the following equation (equation G). RTVn=TVn/TV1 (equation E) T/Cn(%)=(mean RTV of each drug administration group on the last day of the test)/(mean RTV of the control group on the last day of the test)×100 (equation F) BWCn (%)=(BWn−BW1)/BW1×100 (equation G) FIGS. 1 and 2, and Table 21 below show the results.
(§3) The tumor growth inhibitory effects on human tumors were evaluated as in Test Example 5, except that the compound hydrochloride obtained in Example 122, the compound hydrochloride (Example 64), and human acute lymphoblastic leukemia (ALL) CCRF-CEM cell lines were used, and the animals were assigned to each group in accordance with a stratified randomization procedure when the TV reached 140 to 380 mm3.
At this time, the cell lines were washed in PBS, and suspended in 50% PBS and 50% Matrigel basement membrane matrix (#356237; produced by BD Biosciences) at a concentration of 1×10^8 cells/mL. 0.1 mL of this cell suspension was subcutaneously implanted to the right chest of 6-week-old BALB/cAJcl-nu/nu mice (nude mice) (produced by CLEA Japan, Inc.). The compound hydrochloride (Example 122) was intravenously administered in an amount of 5 mL per 1 kg of body weight on days 1 and 8, and the compound hydrochloride (Example 133) was intravenously administered in an amount of 5 mL per 1 kg of body weight on days 1 and 8.

[2] = target: NAE (heterodimer of APPBP1 and UBA3) (Homo sapiens (Human), UniProt Q8TBC4); test: Nedd8 conjugation inhibitory activity (AlphaScreen assay); assay type: biochemical; conditions: purified NAE, GST-UBC12, Biotin-Nedd8, ATP
[3] = tested on: human multiple myeloma U266B1 cell line; test: Cell growth inhibition 2 (CellTiter-Glo), U266B1; assay type: cell-based; conditions: 384-well plate
[4] = tested on: human lung cancer A-427 cell line; test: Cell growth inhibition 2 (CellTiter-Glo), A-427; assay type: cell-based; conditions: 384-well plate
[5] = tested on: Human colon cancer HCT-116 cell lines; test: Antitumor effect on tumor cells transplanted into mice 2 (HCT-116, tumor volume); assay type: in vivo, BALB/cAJcl-nu/nu mice; conditions: Dunnett's test; HCT-116 in nude mice; hydrochloride compound of Example 55
[6] = Body weight change, antitumor test 2 (HCT-116 mice); assay type: in vivo, BALB/cAJcl-nu/nu mice; conditions: HCT-116 xenograft in nude mice, 120 mg/kg/day, administration days 1, 4, 8, 11, day 15
[7] = tested on: human diffuse large B-cell lymphoma DB cell line; test: Cell growth inhibition 2 (CellTiter-Glo), DB; assay type: cell-based; conditions: 384-well plate
[8] = tested on: human prostate cancer LNCAP.FGC cell line; test: Cell growth inhibition 2 (CellTiter-Glo), LNCAP.FGC; assay type: cell-based; conditions: 384-well plate
[9] = tested on: human acute leukemia MV-4-11 cell line; test: Cell growth inhibition 2 (CellTiter-Glo), MV-4-11; assay type: cell-based; conditions: MV4-11, 384-well plate
[10] = tested on: human osteo- and soft tissue sarcoma SJCRH30 cell line; test: Cell growth inhibition 2 (CellTiter-Glo), SJCRH30; assay type: cell-based; conditions: 384-well plate
[11] = Body weight change, antitumor test 3 (CCRF-CEM mice); assay type: in vivo, BALB/cAJcl-nu/nu mice (nude mice); conditions: for change of the body weight compared with the control: CCRF-CEM nude mice, Test Example 7
Description: as §1, §2, §3
At this time, the cell lines were washed in PBS, and suspended in 50% PBS and 50% Matrigel basement membrane matrix (#356237; produced by BD Biosciences) at a concentration of 1×10^8 cells/mL. 0.1 mL of this cell suspension was subcutaneously implanted to the right chest of 6-week-old BALB/cAJcl-nu/nu mice (nude mice) (produced by CLEA Japan, Inc.). […]

[12] = tested on: human acute T lymphoblastic leukemia CCRF-CEM cell lines; test: Cell growth inhibition 1 (CellTiter-Glo), CCRF-CEM; assay type: cell-based; conditions: 72 hours culture with compound
[13] = Body weight change, antitumor test 1 (HCT-116 mice); assay type: in vivo, BALB/cAJcl-nu/nu mice
Description: (§4) Human colon cancer HCT-116 cell lines were washed in PBS and suspended at a concentration of 4×10^7 cells/mL. 0.1 mL of this cell suspension was subcutaneously implanted in the right chest of 6-week-old BALB/cAJcl-nu/nu mice (produced by CLEA Japan, Inc.).
as §1
(§5) When the TV reached 100 to 300 mm3, the animals were assigned to each group in accordance with a stratified randomization procedure. The day was considered day 1, the TV on the day was considered TV1, and the body weight on the day was considered BW1.
(§6) A required amount of the test compound was weighed to prepare an administration solution.
Thereafter, the length and the width of the tumor and the body weight (BWn) on day n were measured over time in the same manner, and the TVn of each mouse was calculated. Further, the relative tumor volume (RTVn) was calculated based on the TVn of each mouse using the following equation (equation E); the treatment/control (T/C) value (%) was calculated based on the mean RTVn of each drug administration group using the following equation (equation F); and the weight change rate (BWCn) was calculated using the following equation (equation G). […]

[14] = target: carbonic anhydrase II (Homo sapiens (Human), UniProt P00918); test: Carbonic anhydrase II enzyme activity inhibition (4-NPA esterase activity); assay type: biochemical
[15] = tested on: Human colon cancer HCT-116 cell lines; test: Antitumor effect on tumor cells transplanted into mice 1 (HCT-116, tumor volume); assay type: in vivo, BALB/cAJcl-nu/nu mice; conditions: HCT-116 in nude mice; for RTV15 comparison with control: Dunnett's test
Description: as §4, §1, §5, §6, §2

[16] = tested on: human breast cancer MDA-MB-453 cell line; test: Cell growth inhibition 2 (CellTiter-Glo), MDA-MB-453; assay type: cell-based; conditions: 384-well plate
[17] = tested on: human colon cancer HCT116 cell line; test: Cell growth inhibition 2 (CellTiter-Glo), HCT116; assay type: cell-based; conditions: HCT-116, 384-well plate
[18] = tested on: human skin cancer A-431 cell line; test: Cell growth inhibition 2 (CellTiter-Glo), A-431; assay type: cell-based; conditions: 384-well plate
[19] = tested on: human pancreatic cancer Capan-1 cell line; test: Cell growth inhibition 2 (CellTiter-Glo), Capan-1; assay type: cell-based; conditions: 384-well plate

Sequence of NAE (heterodimer of APPBP1 and UBA3) (Q8TBC4 whole entry): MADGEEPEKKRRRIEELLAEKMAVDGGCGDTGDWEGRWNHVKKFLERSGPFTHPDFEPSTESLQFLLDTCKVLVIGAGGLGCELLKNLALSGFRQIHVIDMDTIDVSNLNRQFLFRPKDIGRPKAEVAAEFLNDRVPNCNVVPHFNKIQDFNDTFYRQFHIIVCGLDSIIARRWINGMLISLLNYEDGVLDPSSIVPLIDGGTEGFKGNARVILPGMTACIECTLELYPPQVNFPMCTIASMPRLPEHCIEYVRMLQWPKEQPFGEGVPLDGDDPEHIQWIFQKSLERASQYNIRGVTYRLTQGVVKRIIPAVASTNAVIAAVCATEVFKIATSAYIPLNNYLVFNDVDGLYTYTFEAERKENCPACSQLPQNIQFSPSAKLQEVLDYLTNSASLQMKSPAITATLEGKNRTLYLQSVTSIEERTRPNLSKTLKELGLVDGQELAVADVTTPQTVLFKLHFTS
Sequence of NAE (heterodimer of APPBP1 and UBA3) (Q13564 whole entry partner): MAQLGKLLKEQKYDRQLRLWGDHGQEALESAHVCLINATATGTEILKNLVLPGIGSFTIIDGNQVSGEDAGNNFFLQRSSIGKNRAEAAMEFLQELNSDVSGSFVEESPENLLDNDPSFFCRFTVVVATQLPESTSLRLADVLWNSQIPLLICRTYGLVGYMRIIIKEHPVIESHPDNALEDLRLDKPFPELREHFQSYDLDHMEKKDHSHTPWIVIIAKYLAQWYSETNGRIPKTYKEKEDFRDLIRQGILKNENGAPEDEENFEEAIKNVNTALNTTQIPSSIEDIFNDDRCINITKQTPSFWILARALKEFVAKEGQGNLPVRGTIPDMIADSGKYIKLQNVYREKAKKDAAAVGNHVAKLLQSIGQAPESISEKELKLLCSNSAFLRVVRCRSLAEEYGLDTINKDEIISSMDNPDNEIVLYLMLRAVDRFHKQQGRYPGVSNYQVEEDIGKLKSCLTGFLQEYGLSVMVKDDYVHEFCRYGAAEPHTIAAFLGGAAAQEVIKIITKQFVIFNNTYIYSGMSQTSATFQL

## CN1CCOc2c1ccc(F)c2C#Cc1cn([C@@H]2C[C@H](CNS(N)(=O)=O)[C@@H](O)[C@H]2O)c2ncnc(N)c12 [Example 122, 8-[2-[4-amino-7-[(1R,2S,3R,4R)-2,3-dihydroxy-4-[(sulfamoylamino)methyl]cyclopentyl]pyrrolo[2,3-d]pyrimidin-5-yl]ethynyl]-7-fluoro-4-methyl-2,3-dihydro-1,4-benzoxazine]
[1]
  RTV comparison with Comparative Example: significantly lower than that of the Comparative Example
  RTV comparison with control on day 15: significantly lower than that of the control

## Nc1ncnc2c1c(C#Cc1c(F)cc(N3CC[C@H](F)C3)cc1F)cn2[C@@H]1C[C@H](CNS(N)(=O)=O)[C@@H](O)[C@H]1O [Example 116, 4-Amino-5-[2-[2,6-difluoro-4-[(3S)-3-fluoropyrrolidin-1-yl]phenyl]ethynyl]-7-[(1R,2S,3R,4R)-2,3-dihydroxy-4-[(sulfamoylamino)methyl]cyclopentyl]pyrrolo[2,3-d]pyrimidine]
[2]
  IC50: 0.0051 µM

## NS(=O)(=O)OC[C@@H]1C[C@@H](n2ccc3c(N[C@H]4CCc5ccccc54)ncnc32)C[C@@H]1O [Comparative Example, N-[(1S)-1-indanyl]-7-[(1R)-3α-hydroxy-4α-(sulfamoyloxymethyl)cyclopentyl]-7H-pyrrolo[2,3-d]pyrimidin-4-amine]
[3]
  IC50: 1400 nM
[4]
  IC50: 180 nM
[5]
  RTV15 comparison with control: significantly lower than that of the control
[6]
  BWC15 (%) Mean ± SD: −8.4 ± 3.2%
[1]
  RTV comparison with control on day 15: significantly lower than that of the control
[7]
  IC50: 560 nM
[8]
  IC50: 410 nM
[9]
  IC50: 110 nM
[10]
  IC50: > 10000 nM
[11]; CCRF-CEM xenograft in nude mice, 120 mg/kg/day i.v., administration days 1, 4, 8, 11, day 15
  BWC15 (%) Mean ± SD: 6.1 ± 2.6%
[12]
  IC50: 89 nM
[13]; body weight change rate day 15, dose 120 mg/kg/day intravenous, administration day 1, 4, 8, 11
  BWC15 (%) Mean ± SD: −14.3 ± 5.1%
[14]; 4-nitrophenyl acetate esterase activity, absorbance at 405 nm
  IC50: 0.012 µM
[14]; summary in words of Table 18
  inhibitory activity against carbonic anhydrase II: exhibited inhibitory activity against carbonic anhydrase II
[15]
  RTV15 comparison with control: significantly lower than that of the control
[16]
  IC50: 1900 nM
[17]
  IC50: 89 nM
[18]
  IC50: 750 nM
[19]
  IC50: 1500 nM

## Nc1ncnc2c1c(C#Cc1c(F)cccc1F)cn2[C@@H]1O[C@H](CNS(N)(=O)=O)[C@@H](O)[C@H]1O [Example 1, 4-Amino-5-[2-(2,6-difluorophenyl)ethynyl]-7-[(2R,3R,4S,5R)-3,4-dihydroxy-5-[(sulfamoylamino)methyl]tetrahydrofuran-2-yl]pyrrolo[2,3-d]pyrimidine]
[13]; HCT-116 nude mice, Test Example 5
  change of the body weight compared with the control: within an acceptable degree
[15]; Aspin-Welch's t-test
  RTV comparison with Comparative Example: significantly lower than that of the Comparative Example
[15]
  RTV15 comparison with control: significantly lower than that of the control

## Nc1ncnc2c1c(C#Cc1cccc3ccccc13)cn2[C@@H]1O[C@H](COS(N)(=O)=O)[C@@H](O)[C@H]1O [Example 133, [(2R,3S,4R,5R)-5-[4-Amino-5-[2-(1-naphthyl)ethynyl]pyrrolo[2,3-d]pyrimidin-7-yl]-3,4-dihydroxy-tetrahydrofuran-2-yl]methyl sulfamate]
[1]
  RTV comparison with control on day 15: significantly lower than that of the control
[11]
  change of the body weight compared with the control: almost the same as that of the control

## Nc1ncnc2c1c(C#Cc1c(F)cc(N3CC[C@H](O)C3)cc1F)cn2[C@@H]1C[C@H](CNS(N)(=O)=O)[C@@H](O)[C@H]1O [Example 121, 4-Amino-5-[2-[2,6-difluoro-4-[(3S)-3-hydroxypyrrolidin-1-yl]phenyl]ethynyl]-7-[(1R,2S,3R,4R)-2,3-dihydroxy-4-[(sulfamoylamino)methyl]cyclopentyl]pyrrolo[2,3-d]pyrimidine]
[2]
  IC50: 0.0062 µM

## Nc1ncnc2c1c(C#Cc1c(F)cccc1F)cn2[C@@H]1C=C(CNS(N)(=O)=O)[C@@H](O)[C@H]1O [Example 128, 4-Amino-5-[2-(2,6-difluorophenyl)ethynyl]-7-[(1R,4R,5S)-4,5-dihydroxy-3-[(sulfamoylamino)methyl]cyclopent-2-en-1-yl]pyrrolo[2,3-d]pyrimidine]
[2]
  IC50: 0.0033 µM

## Nc1ncnc2c1c(C#Cc1c(F)cc(N3CC[C@@H](O)C3)cc1F)cn2[C@@H]1C[C@H](CNS(N)(=O)=O)[C@@H](O)[C@H]1O [Example 120, 4-Amino-5-[2-[2,6-difluoro-4-[(3R)-3-hydroxypyrrolidin-1-yl]phenyl]ethynyl]-7-[(1R,2S,3R,4R)-2,3-dihydroxy-4-[(sulfamoylamino)methyl]cyclopentyl]pyrrolo[2,3-d]pyrimidine]
[1]
  RTV comparison with control on day 15: significantly lower than that of the control
[11]
  change of the body weight compared with the control: almost the same as that of the control

## CN1CCOc2c1ccc(F)c2C#Cc1cn([C@@H]2O[C@H](CNS(N)(=O)=O)[C@@H](O)[C@H]2O)c2ncnc(N)c12 [Example 64, 8-[2-[4-Amino-7-[(2R,3R,4S,5R)-3,4-dihydroxy-5-[(sulfamoylamino)methyl]tetrahydrofuran-2-yl]pyrrolo[2,3-d]pyrimidin-5-yl]ethynyl]-7-fluoro-4-methyl-2,3-dihydro-1,4-benzoxazine]
[1]
  RTV comparison with Comparative Example: significantly lower than that of the Comparative Example
  RTV comparison with control on day 15: significantly lower than that of the control
